# Reference: US20190328691A1, “ANTIBIOTIC THERAPY” (Boulos & Cooper Pharmaceuticals Pty Ltd, priority 2015, published 2019)
# “And” between values parts separate entries of the source, which are not always exact repeats. Equal values may be shown once. Read-outs that look alike come from different tables or passages of the source.
# Legend:
# [1] = tested on: Staphylococcus aureus (BAA-1717); assay: Checkerboard combination / MIC assay with S. aureus BAA-1717 (MRSA); format: cell-based
# Description: (§1) Colonies were suspended in PBS. The absorbance of each suspension was measured with a spectrophotometer, and then the suspension was adjusted to 1×10^6 CFU/mL. The testing inoculum was prepared within 20 minutes before adding to wells of the test plate. Final cellular density in the checkerboard assays was 5×10^5 CFU/mL.
# (§2) The combination effect of antibacterial substances administered together was evaluated by an in vitro checkerboard combination method with Staphylococcus aureus (ATCC 29213) and Staphylococcus aureus (BAA-1717). Ramizol and Chlopam were tested alone in 11 points by two-fold serial titration and in combination with different commercial antibiotics which were tested in a 7-point titration alone and in combination with Ramizol and Chlopam using the checkerboard technique as recommended by the Clinical & Laboratory Standards Institute (CLSI. Methods for Dilution In Antimicrobial Susceptibility Tests for Bacteria That Grow Aerobically; Approved Standard-Eighth Edition. CLSI document M07-A8 (ISBN 1-56238-689-1). Vol. 29 No. 2. Clinical and Laboratory Standards Institute, USA, 2009). The commercial antibiotics were also tested alone. Twenty-four checkerboard tests were performed.
# (§3) The starting concentration of Ramizol, Chlopam, and the commercial antibiotics was four fold of the MIC. The testing range for each combination was described in the following summary tables.
# (§4) Compound dilutions of Ramizol and Chlopam were performed in 100% DMSO and the final DMSO concentration in all test wells was 2%. Growth control wells also included 2% DMSO. CLSI protocol was followed for medium, inoculum preparation, and endpoint reading. The commercial antibiotics were dissolved and diluted in the CLSI specified diluent. The final inoculum count for each strain was 5×10^5 CFU/mL.
# Each test substance was dissolved and diluted in 100% DMSO or specified solvent. Each test substance dilution (2 μL) was added to 96 μL broth CAMHB. CAMHB seeded with S. aureus BAA-1717 at 1×10^6 CFU/mL (100 μL) was then added to the plate to generate a final cell count at 5×10^5 CFU/mL.
# (§5) Assay plates were incubated and MIC endpoints were read as described in the MIC assay. FIC (Fraction Inhibitory Concentration) and FIC Index (FICI) values for each test condition and the average of FICI values of all pairwise combinations were calculated to determine if synergy or antagonism existed between the two substances. The FIC index was determined by calculating the sum of the ratios of MICs for both substances. Arithmetically, the FIC Index of a combination of Substance 1 and Substance 2 was defined as following: FICI=Σ[FIC(Substance 1)+FIC(Substance 2)]=[(MIC of Substance 1 in combination/MIC of Substance 1 alone)+(MIC of Substance 2 in combination/MIC of Substance 2 alone)]. Synergy is defined as the FICI (Σ)≤0.5; additivity as FICI (Σ)>0.5 to ≤1; indifference as FICI (Σ)>1 to ≤4; antagonism is defined as the FICI (Σ)>4 (Zinner and Blaser, J. Journal of Antimicrobial Chemotherapy (1986), 17, 1-5; Amin, et al BMC Complementary & Alternative Medicine (2015), 15, 59; Zuo, et al. Molecules (2011), 16, 9819-9826).
# [2] = tested on: Staphylococcus aureus (ATCC 29213); assay: Checkerboard combination / MIC assay with S. aureus ATCC 29213; format: cell-based; settings: S. aureus ATCC 29213; for MIC: Staphylococcus aureus, read-out: MIC of antibiotic alone
# Description: as §1, §2, §3, §4
# Cefepime, Daptomycin, Linezolid, Mupirocin, Oxacillin and Vancomycin were also tested alone. Each test substance was dissolved and diluted in 100% DMSO or specified solvent. Each test substance dilution (2 μL) was added to 96 μL broth CAMHB. CAMHB seeded with S. aureus ATCC 29213 at 1×10^6 CFU/mL (100 μL) was then added to the plate to generate a final cell count at 5×10^5 CFU/mL.
# as §5
structure (smiles),measurement,setting,value
CO/N=C(\C(=O)N[C@@H]1C(=O)N2C(C(=O)[O-])=C(C[N+]3(C)CCCC3)CS[C@H]12)c1csc(N)n1 [Cefepime],FICI of combination with Chlopam,"[1]; Chlopam 0.001953 μg/mL + labelled antibiotic at MIC of same cell, S. aureus ATCC BAA-1717",1.0
same,MIC of antibiotic in combination with Chlopam,"[1]; Chlopam 0.001953 μg/mL, S. aureus ATCC BAA-1717",256 µg/mL
same,FICI of combination with Chlopam,"[1]; Chlopam 0.003906 μg/mL + labelled antibiotic at MIC of same cell, S. aureus ATCC BAA-1717",1.0
same,MIC of antibiotic in combination with Chlopam,"[1]; Chlopam 0.003906 μg/mL, S. aureus ATCC BAA-1717",256 µg/mL
same,FICI of combination with Chlopam,"[1]; Chlopam 0.0078125 μg/mL + labelled antibiotic at MIC of same cell, S. aureus ATCC BAA-1717",1.0
same,MIC of antibiotic in combination with Chlopam,"[1]; Chlopam 0.0078125 μg/mL, S. aureus ATCC BAA-1717",256 µg/mL
same,FICI of combination with Chlopam,"[1]; Chlopam 0.015625 μg/mL + labelled antibiotic at MIC of same cell, S. aureus ATCC BAA-1717",1.0
same,MIC of antibiotic in combination with Chlopam,"[1]; Chlopam 0.015625 μg/mL, S. aureus ATCC BAA-1717",256 µg/mL
same,FICI of combination with Chlopam,"[1]; Chlopam 0.03125 μg/mL + labelled antibiotic at MIC of same cell, S. aureus ATCC BAA-1717",1.0
same,MIC of antibiotic in combination with Chlopam,"[1]; Chlopam 0.03125 μg/mL, S. aureus ATCC BAA-1717",256 µg/mL
same,FICI of combination with Chlopam,"[1]; Chlopam 0.125 μg/mL + labelled antibiotic at MIC of same cell, S. aureus ATCC BAA-1717",0.6
same,MIC of antibiotic in combination with Chlopam,"[1]; Chlopam 0.125 μg/mL, S. aureus ATCC BAA-1717",128 µg/mL
same,FICI of combination with Chlopam,"[1]; Chlopam 0.5 μg/mL + labelled antibiotic at MIC of same line, S. aureus ATCC BAA-1717",0.5
same,MIC of antibiotic in combination with Chlopam,"[1]; Chlopam 0.5 μg/mL, S. aureus ATCC BAA-1717",8 µg/mL
same,Effect of individual antibiotic combinations of lower concentrations,"[1]; Chlopam and Cefepime: 0.25 and 64, 0.25 and 32, 0.25 and 16, 0.50 and 8 μg/mL, S. aureus ATCC BAA-1717",synergistic effect
same,FICI of combination with Ramizol,"[1]; Ramizol 0.015625 μg/mL + labelled antibiotic at MIC of same cell, S. aureus ATCC BAA-1717",1.0
same,MIC of antibiotic in combination with Ramizol,"[1]; Ramizol 0.015625 μg/mL, S. aureus ATCC BAA-1717",256 µg/mL
same,FICI of combination with Ramizol,"[1]; Ramizol 0.03125 μg/mL + labelled antibiotic at MIC of same cell, S. aureus ATCC BAA-1717",1.0
same,MIC of antibiotic in combination with Ramizol,"[1]; Ramizol 0.03125 μg/mL, S. aureus ATCC BAA-1717",256 µg/mL
same,FICI of combination with Ramizol,"[1]; Ramizol 0.0625 μg/mL + labelled antibiotic at MIC of same cell, S. aureus ATCC BAA-1717",1.0
same,MIC of antibiotic in combination with Ramizol,"[1]; Ramizol 0.0625 μg/mL, S. aureus ATCC BAA-1717",256 µg/mL
same,FICI of combination with Ramizol,"[1]; Ramizol 0.125 μg/mL + labelled antibiotic at MIC of same line, S. aureus ATCC BAA-1717",0.5
same,MIC of antibiotic in combination with Ramizol,"[1]; Ramizol 0.125 μg/mL, S. aureus ATCC BAA-1717",128 µg/mL
same,FICI of combination with Ramizol,"[1]; Ramizol 0.25 μg/mL + labelled antibiotic at MIC of same cell, S. aureus ATCC BAA-1717",0.6
same,MIC of antibiotic in combination with Ramizol,"[1]; Ramizol 0.25 μg/mL, S. aureus ATCC BAA-1717",128 µg/mL
same,FICI of combination with Ramizol,"[1]; Ramizol 0.5 μg/mL + labelled antibiotic at MIC of same cell, S. aureus ATCC BAA-1717",0.6
same,MIC of antibiotic in combination with Ramizol,"[1]; Ramizol 0.5 μg/mL, S. aureus ATCC BAA-1717",128 µg/mL
same,FICI of combination with Ramizol,"[1]; Ramizol 1 μg/mL + labelled antibiotic at MIC of same line, S. aureus ATCC BAA-1717",0.5
same,MIC of antibiotic in combination with Ramizol,"[1]; Ramizol 1 μg/mL, S. aureus ATCC BAA-1717",64 µg/mL
same,FICI of combination with Ramizol,"[1]; Ramizol 2 μg/mL + labelled antibiotic at MIC of same line, S. aureus ATCC BAA-1717",0.5 and 0.6
same,Effect of individual antibiotic combinations of lower concentrations,"[1]; Ramizol and Cefepime: 0.125 and 128, 1 and 64, 2 and 8 μg/mL, S. aureus ATCC BAA-1717",synergistic effect
same,MIC,"[1]; Staphylococcus aureus, ATCC BAA-1717 / BAA-1717, Table 4, checkerboard series with Chlopam, S. aureus ATCC BAA-1717, read-out: MIC of antibiotic alone",256 µg/mL
same,MIC of antibiotic alone,"[1]; Table 7, checkerboard series with Ramizol, S. aureus ATCC BAA-1717",256 µg/mL
same,Effect of the combinations with Chlopam (by mean FICI),"[1]; labelled antibiotic + Chlopam, S. aureus BAA-1717",additive effect
same,mean FICI of combination with Chlopam,"[1]; labelled antibiotic + Chlopam, mean of all pairwise combinations, S. aureus ATCC BAA-1717",0.8
same,Effect of the combinations with Ramizol (by mean FICI),"[1]; labelled antibiotic + Ramizol, S. aureus BAA-1717",additive effect
same,mean FICI of combination with Ramizol,"[1]; labelled antibiotic + Ramizol, mean of all pairwise combinations, S. aureus ATCC BAA-1717",0.696
same,FICI of combination with Chlopam,[2]; Chlopam 0.003906 μg/mL + labelled antibiotic at MIC of same cell,1.0
same,MIC of antibiotic in combination with Chlopam,[2]; Chlopam 0.003906 μg/mL,4 µg/mL
same,FICI of combination with Chlopam,[2]; Chlopam 0.0078125 μg/mL + labelled antibiotic at MIC of same cell,1.0
same,MIC of antibiotic in combination with Chlopam,[2]; Chlopam 0.0078125 μg/mL,4 µg/mL
same,FICI of combination with Chlopam,[2]; Chlopam 0.015625 μg/mL + labelled antibiotic at MIC of same cell,1.0
same,MIC of antibiotic in combination with Chlopam,[2]; Chlopam 0.015625 μg/mL,4 µg/mL
same,FICI of combination with Chlopam,[2]; Chlopam 0.25 μg/mL + labelled antibiotic at MIC of same cell,1.0
same,MIC of antibiotic in combination with Chlopam,[2]; Chlopam 0.25 μg/mL,2 µg/mL
same,FICI of combination with Chlopam,[2]; Chlopam 0.5 μg/mL + labelled antibiotic at MIC of same cell,1.0
same,MIC of antibiotic in combination with Chlopam,[2]; Chlopam 0.5 μg/mL,0.125 µg/mL
same,FICI of combination with Ramizol,[2]; Ramizol 0.015625 μg/mL + labelled antibiotic at MIC of same cell,1.0
same,MIC of antibiotic in combination with Ramizol,[2]; Ramizol 0.015625 μg/mL,4 µg/mL
same,FICI of combination with Ramizol,[2]; Ramizol 0.03125 μg/mL + labelled antibiotic at MIC of same cell,1.0
same,MIC of antibiotic in combination with Ramizol,[2]; Ramizol 0.03125 μg/mL,4 µg/mL
same,FICI of combination with Ramizol,[2]; Ramizol 0.0625 μg/mL + labelled antibiotic at MIC of same cell,1.0
same,MIC of antibiotic in combination with Ramizol,[2]; Ramizol 0.0625 μg/mL,4 µg/mL
same,FICI of combination with Ramizol,[2]; Ramizol 0.125 μg/mL + labelled antibiotic at MIC of same cell,1.0
same,MIC of antibiotic in combination with Ramizol,[2]; Ramizol 0.125 μg/mL,4 µg/mL
same,FICI of combination with Ramizol,[2]; Ramizol 1 μg/mL + labelled antibiotic at MIC of same cell,0.8
same,MIC of antibiotic in combination with Ramizol,[2]; Ramizol 1 μg/mL,2 µg/mL
same,FICI of combination with Ramizol,[2]; Ramizol 2 μg/mL + labelled antibiotic at MIC of same cell,0.8
same,MIC of antibiotic in combination with Ramizol,[2]; Ramizol 2 μg/mL,1 µg/mL
same,FICI of combination with Ramizol,[2]; Ramizol 4 μg/mL + labelled antibiotic at MIC of same cell,1.0
same,MIC of antibiotic in combination with Ramizol,[2]; Ramizol 4 μg/mL,0.125 µg/mL
same,MIC,"[2]; ATCC29213, Table 4, checkerboard series with Chlopam",4 µg/mL
same,MIC,"[2]; ATCC29213, Table 7, checkerboard series with Ramizol",4 µg/mL
same,mean FICI of combination with Chlopam,"[2]; labelled antibiotic + Chlopam, mean of all pairwise combinations",1.1
same,Effect of the combinations with Ramizol (by mean FICI),[2]; labelled antibiotic + Ramizol,additive effect
same,mean FICI of combination with Ramizol,"[2]; labelled antibiotic + Ramizol, mean of all pairwise combinations",1.0
